Experimental data from US10072304B2, “Nuclear localization of Src-family tyrosine kinases is required for growth factor-induced euchromatinization” (National University Corporation Chiba University, priority 2009, dated 2018).

Test system: COS-1 cells
Assay: Anti-pTyr immunofluorescent staining of tyrosine phosphorylation in COS-1 cells
Format: cell-based, monkey
Experimental: COS-1, HeLa cells (Japanese Collection of Research Bioresources, Osaka), MCF-7 (provided by H. Saya), A431 (provided by M. N. Fukuda), HEK293 (provided by M. Tagawa), HCT116 (provided by T. Tomonaga), and SYF ([37]; provided by M. Okada and S. Nada) cells were cultured in Iscove's modified DME containing 5% fetal bovine serum (FBS). Cells were transiently transfected with 0.5 μg of plasmid vector using Trans IT Transfection reagent (Mirus) or with 1 μg of plasmid vector using linear polyethylenimine (25 kDa) (Polyscience, Inc.). For growth factor stimulation, COS-1 cells were starved under low serum conditions (0.05% FBS) for 24 h and restimulated with serum (5% FBS). For stimulation of endogenous SFKs, cells were treated with 3 mM Na3VO4 for 3 h, and SFK-mediated tyrosine phosphorylation was verified by treatment with 10 μM PP2 (SFK inhibitor; Calbiochem) or 100 nM wortmannin (PI3K inhibitor; Alomone Labs) for 21 h before Na3VO4 treatment. Na3VO4 was dissolved at 500 mM in 500 mM unbuffered HEPES before use. For preparation of stable transfectant clones, SYF cells transfected with c-Src-wt or Lyn-wt were selected in 333 μg/mL Zeocin (Invitrogen), and COS-1 cells were transfected with the BOSH2BGFP-N1 vector, which encodes GFP-tagged histone H2B ([39,40]; provided by H. Saya), were selected in 3 μg/mL blasticidin.
Confocal and Nomarski differential-interference-contrast images were obtained using a Fluoview FV500 confocal laser scanning microscope with a 40×1.00 NA oil and a 100×1.35 NA oil immersion objective (Olympus, Tokyo) and an LSM 510 confocal laser scanning microscope with a 63×1.40 NA oil immersion objective (Zeiss), as described. One planar (xy) section slice (0.6-μm thickness) is shown in all experiments. In brief, cells were fixed with 4% paraformaldehyde for 20 min, and permeabilized in phosphate-buffered saline (PBS) containing 0.1% saponin and 3% bovine serum albumin at room temperature. Cells were subsequently reacted with an appropriate primary antibody for 1 h, washed with PBS containing 0.1% saponin, stained with FITC- or TRITC-conjugated secondary antibody for 1 h. For DNA staining, cells were subsequently treated with 200 μg/ml RNase A for 1 h and 20 μg/ml propidium iodide (PI) for 30 min, and mounted with Prolong Antifade™ reagent (Molecular Probes). To ensure no bleed-through from the fluorescein signal into the red channel, fluorescein and rhodamine were independently excited at 488 nm and 543 nm, respectively. PI was excited at 488 or 543 nm. Emission signals were detected between 505 and 525 nm for fluorescein, at more than 560 nm for rhodamine and more than 610 nm for PI [44]. Composite figures were prepared using Photoshop 5.0 and Illustrator 9.0 software (Adobe). For nuclear staining with anti-pTyr, anti-ATF-2 pT69/71, and anti-histone H3K4me3 antibodies, cells were in situ extracted with 0.5% Triton X-100 at 4° C. for 3 min before fixation with 4% paraformaldehyde. For HP1α staining, cells were fixed in 100% methanol at −20° C. for 10 min followed by permeabilization for 30 min in PBS containing 0.1% Triton X-100 at room temperature. Cells were reacted with anti-HP1α antibody for 1 h at room temperature, washed with PBS four times, and stained with secondary antibody for 1 h. Fluorescence intensity plots of anti-histone H3K4me3, anti-ATF-2 pT69/71 and anti-HP1α antibody and PI staining (see FIGS. 18B, 19B, and 20B, respectively) were generated using Fluoview version 4.3 software (Olympus, Tokyo). […]

SMILES	tyrosine phosphorylation throughout the cell (3 mM Na3VO4 for 3 h, FIG. 23)	tyrosine phosphorylation within the nucleus (Na3VO4, in situ extraction with 0.5% Triton X-100 before fixation, FIGS. 24 and 25)	basal levels of tyrosine phosphorylation (10 μM PP2 or 100 nM wortmannin for 24 h, FIG. 22)	tyrosine phosphorylation in Na3VO4-treated cells (10 μM PP2 pretreatment 21 h, then 3 mM Na3VO4 3 h, FIG. 23)	Na3VO4-induced increase in nuclear tyrosine phosphorylation (PP2 plus Na3VO4, in situ extraction with 0.5% Triton X-100, FIGS. 24 and 25)
[Na+].[Na+].[Na+].[O]=[V]([O-])([O-])[O-] [Na3VO4, sodium orthovanadate]	greatly increased	increase in tyrosine phosphorylation induced by Na3VO4 was clearly visible	–	–	–
CC(C)(C)n1nc(-c2ccc(Cl)cc2)c2c(N)ncnc21 [PP2]	–	–	significantly reduce	decreased	significantly inhibited
